Reference: patent US6384076B1, “Inhibition or erythrocyte sickling by N-L-alpha-aspartyl-L-phenylalanine 1-methyl ester” (Oklahoma Medical Research Foundation, priority 1998, dated 2002)
“And” between values parts separate entries of the source, which are not always exact repeats. Equal entries are not always repeated. Peptide text beside a SMILES is read from it.

Tests used:
RBCs containing HbS = assay: Metabisulfite sickling test on heparinized patient blood treated with APM in vitro; format: cell-based, human; conditions: for Number of Cells Sickled per Hundred Counted: individual patients 1-12, baseline subtracted; for Number of Cells Sickled per Hundred Counted, Avg: average over 0, 30, 120 min per patient 1-12; for Number of Cells Sickled per Hundred Counted, Mean: mean of the twelve patients' averages (control 17.7)
Method: Blood was drawn from twelve patients of pediatric age who were being treated by phlebotomy and exchange transfusion for their sickling disorders. Blood samples from each patient were drawn directly into heparin tubes, stored in a refrigerator at approximately 10° C., and routinely tested within 36 hours of collection. Some samples were rechecked or reanalyzed within a week of collection, and the effects on sickle hemoglobin was still present with counted values similar to those obtained within 36 hours.
Normal blood devoid of HbS was used as a control. For each heparinized patient blood sample and the normal blood control, three experimental samples were prepared containing 0.25 milliliters of normal saline and 0.25 milliliters of blood and then treated as follows: (1) one was left untreated; one was treated with 1 milligram APM; and (3) one was treated with 2 milligrams APM. All experimental samples were stored in a refrigerator at approximately 10° C. for one hour prior to testing to allow time for the APM to be absorbed by the RBCs.
Using metabisulfite to reduce HbS to the deoxy form (Daland, G. A. and Castle, W. B. 1948. J Lab Clin Med 33:1082-1088; Nelson, D. A. In Todd-Sanford-Davidsohn Clinical Diagnosis by Laboratory Methods, J. B. Henry, ed. (W. B. Saunders Co., Philadelphia, 1979, vol. 1, p. 1020), a sickling test was run on each experimental sample. The sickling inducing agent was prepared fresh daily as follows: 10 milligrams metabisulfite in 1 milliliter isotonic saline. Multiple test slides were prepared for each experimental sample by adding 3 drops of the metabisulfite inducing agent and 1 drop of the experimental sample onto the surface of a glass slide, placing a coverslip over the sample, and sealing the coverslip with a petroleum jelly bead to prevent oxygen from entering the sample. Photomicrographs were taken with a phase contrast microscope at 400 magnification at 0, 30, and 120 minutes after slide preparation, and the results were obtained from the photomicrographs as the number of sickle cells per 100 cells counted.
To account for natural or non-induced sickling of the experimental samples, a baseline sickling count was obtained for each heparinized patient blood sample and the normal blood control. Slides were prepared by adding 3 drops of saline and 1 drop of the experimental sample onto the surface of a glass slide, placing a coverslip over the sample, and sealing the coverslip with a petroleum jelly bead to prevent oxygen from entering the sample. Photomicrographs were taken with a phase contrast microscope at 400 magnification at 0, 30, and 120 minutes after slide preparation, and the results were obtained from the photomicrographs as the number of sickle cells per 100 cells counted. This number of sickle cells per 100 cells counted was considered the baseline sickling count and was subtracted from the cell counts obtained with the metabisulfite induced samples.
A timeline for APM effect was made by repeating the experiment given above with cell counts obtained at 0, 1, 2, 3, 4, 5, 24, and 27 hours post-metabisulfite induction. The results are presented in FIG. 2 as combined APM timelines for each treatment method. The antisickling effect of APM in vitro lasted for at least 27 hours. During this period, the rate of sickling in the APM treated
The effect of calcium (Ca^2+) on the effectiveness of APM was examined by repeating the experiment above with the addition of EDTA, a Ca^2+chelating agent, to normal blood control and the patient experimental samples prior to testing. FIG. 3 illustrates the comparative heparin versus EDTA treatment of the blood. […] Moreover, the addition of a calcium salt to APM formulations useful for antisickling treatment as well as in vitro applications is desirable.

sickling RBCs [1] = assay: Reduction of sickle cells in vivo: metabisulfite sickling test on blood of one patient before and 1 hour after oral APM; set-up: species or system human; conditions: blood 1 hour after
Method: During Week 1 of the study, blood samples were taken from the patient before and one hour after an orally administered dose of 60 milligrams APM. During Week 2, blood samples were taken from the patient before and one hour after an orally administered dose of 160 milligrams APM. The blood samples and slides were prepared according to the methods given in Example 1, and cell counts were taken at 0, 30, and 120 minutes post-induction.

sickling RBCs [2] = assay: Blinded APM dose-response study of patients with sickle cell disorders (sickle cell counts); format: in vivo, human; conditions: for Dose-response of antisickling effect: 1.5, 3, 6 mg/kg body weight
Method: A blinded study was conducted with 23 patients diagnosed with sickle cell disorders. Blood samples were obtained from the 23 patients having sickle cell disease (homozygous HgBss), sickle cell trait (heterozygous Hgbsc), or homozygous HbS with a β-thalassemia chain (“sbthal”) before and after a blinded administration of APM at 1.5 (low dosage), 3 (medium dosage), or 6 (high dosage) milligrams per kilogram body weight.
Blood was drawn before and 120 minutes after treatment with 0, 1.5, 3, or 6 milligrams APM per kilogram body weight in a blinded fashion from the ten patients into heparin tubes, stored in a refrigerator at approximately 10° C. and routinely tested within 36 hours of collection.
Normal blood devoid of abnormal hemoglobin was used as a control. For each heparinized patient blood sample and the normal blood control, experimental samples were prepared containing 0.25 milliliters of normal saline and 0.25 milliliters of blood. Following the metabisulfite induction as given in Example 1, the number of sickle cells relative to the number of normal cells was obtained at 0, 30, 60, 120, 240, 480, and 1440 minutes post-induction.

whole blood viscosity [3] = assay: Blood viscosity by RBC pipette method before and after blinded oral APM; format: in vivo, human; conditions: for Blood viscosity change after treatment: baseline vs 120 minutes post-treatment
Excerpt: Blood samples were obtained from ten patients having homozygous HbSS disease or heterozygous HbSC disease before and after a blinded administration of APM at 1.5 (low dosage), 3 (medium dosage), or 6 (high dosage) milligrams per kilogram body weight. The patients' characteristics are given in the first ten entries in Table II.
Viscosity determinations using the RBC pipette method of Wright and Jenkins (Wright, D. J. and Jenkins, Jr., D. E. 1970. Blood 36:516-522) were made on each blinded whole blood sample before and 120 minutes after blinded administration of APM. Each measurement was made in triplicate. Control viscosity measurements using saline and water for each patient and normal whole blood sample were also made to validate the viscosity measurements.
(§1) To measure viscosity, 1.01 cc of the test fluid, i.e., either water, saline or blood, was drawn into an RBC pipette using a 50 cc syringe attached via rubber tubing to the top of the RBC pipette. Using a constant pressure of 20 mm by maintaining the pressure with visual feedback and hand pressure, the amount of time it took for the test fluid to drip out of the RBC pipette was measured with a stopwatch. Each measurement was made in triplicate.

whole blood viscosity [4] = assay: Blood viscosity after additional in vitro APM on samples taken post in vivo treatment; format: cell-based, human; conditions: 1 or 2 milligrams/milliliter APM added in vitro to 480 minute post-treatment samples
Method: as §1
Samples with high viscosity readings at 480 minute or 1,440 minute posttreatment, chosen to represent patients with a validated response to APM who were returning to normal, were divided and treated with an additional 0, 1, or 2 milligrams/milliliter APM in vitro, in an effort to measure whether a second inducible sickling response was possible and if a second response to the in vitro APM addition could be observed. The viscosity of each sample at 480 minutes post-treatment was measured.

[5] = test system: osteo- and mixed osteo- and rheumatoid arthritis; conditions: clinical trial, Edmundson and Manion 1998; cited from earlier work

In the case of `COC(=O)[C@H](Cc1ccccc1)NC(=O)[C@@H](N)CC(=O)O` [APM, N-L-alpha-aspartyl-L-phenylalanine 1-methyl ester] (H-Asp-Phe-OMe), the “Number of Cells Sickled per Hundred Counted” value (RBCs containing HbS; APM 1 mg in 0.25 ml blood + 0.25 ml saline, 0 min after slide preparation) is reported as 1.5 per Hundred Counted (2×) and 1.0 per Hundred Counted and 0.5 per Hundred Counted and 0.0 per Hundred Counted and 2.5 per Hundred Counted (2×) and 2.0 per Hundred Counted (2×) and 9.5 per Hundred Counted (2×) and −1.0 per Hundred Counted, the “Number of Cells Sickled per Hundred Counted” value (RBCs containing HbS; APM 1 mg, 30 min after slide preparation) is reported as 2.5 per Hundred Counted and 2.0 per Hundred Counted and −1.0 per Hundred Counted and 6.0 per Hundred Counted and 1.5 per Hundred Counted and 3.5 per Hundred Counted (2×) and 3.0 per Hundred Counted and 10.5 per Hundred Counted and 9.0 per Hundred Counted and 4.5 per Hundred Counted and −0.5 per Hundred Counted and the “Number of Cells Sickled per Hundred Counted” value (RBCs containing HbS; APM 1 mg, 120 min after slide preparation) is reported as 1.5 per Hundred Counted and 3.5 per Hundred Counted (2×) and 1.0 per Hundred Counted and 21.0 per Hundred Counted and 2.5 per Hundred Counted and 3.0 per Hundred Counted and 12.0 per Hundred Counted and 11.0 per Hundred Counted and 4.0 per Hundred Counted and 0.5 per Hundred Counted. The “Number of Cells Sickled per Hundred Counted, Avg” value (RBCs containing HbS; APM 1 mg) was 1.8 per Hundred Counted and 2.2 per Hundred Counted (2×) and 0.2 per Hundred Counted and 9.0 per Hundred Counted and 2.8 per Hundred Counted (2×) and 10.7 per Hundred Counted and 9.8 per Hundred Counted and 3.2 per Hundred Counted (2×) and −0.3 per Hundred Counted, the “Number of Cells Sickled per Hundred Counted, Mean” value (RBCs containing HbS; APM 1 mg) was 4.0 per Hundred Counted and the “Number of Cells Sickled per Hundred Counted” value (RBCs containing HbS; APM 2 mg in 0.25 ml blood + 0.25 ml saline, 0 min after slide preparation) was 0.5 per Hundred Counted (2×) and 0.0 per Hundred Counted (2×) and 2.0 per Hundred Counted (2×) and 2.5 per Hundred Counted and 1.0 per Hundred Counted (2×) and 6.5 per Hundred Counted and 8.5 per Hundred Counted and −5.5 per Hundred Counted. The “Number of Cells Sickled per Hundred Counted” value (RBCs containing HbS; APM 2 mg, 30 min after slide preparation) was 0.5 per Hundred Counted (2×) and 1.0 per Hundred Counted and −0.5 per Hundred Counted and 6.0 per Hundred Counted and 2.0 per Hundred Counted (3×) and 1.5 per Hundred Counted and 5.0 per Hundred Counted and 8.5 per Hundred Counted and −6.5 per Hundred Counted, the “Number of Cells Sickled per Hundred Counted” value (RBCs containing HbS; APM 2 mg, 120 min after slide preparation) was −0.5 per Hundred Counted (2×) and 0.5 per Hundred Counted and 19.0 per Hundred Counted and 2.5 per Hundred Counted and 5.0 per Hundred Counted and 2.0 per Hundred Counted (2×) and 9.5 per Hundred Counted and 1.0 per Hundred Counted and −6.5 per Hundred Counted and the “Number of Cells Sickled per Hundred Counted, Avg” value (RBCs containing HbS; APM 2 mg) was 0.0 per Hundred Counted and 0.5 per Hundred Counted and −0.3 per Hundred Counted and 9.0 per Hundred Counted and 2.3 per Hundred Counted and 1.3 per Hundred Counted and 3.0 per Hundred Counted and 4.5 per Hundred Counted and 8.8 per Hundred Counted and 1.2 per Hundred Counted and 0.8 per Hundred Counted and −6.2 per Hundred Counted. The “Number of Cells Sickled per Hundred Counted, Mean” value (RBCs containing HbS; APM 2 mg) was 2.1 per Hundred Counted, the “Antisickling effect of APM with addition of EDTA” value (RBCs containing HbS; EDTA (Ca2+ chelating agent) added prior to testing) was “completely eliminated the antisickling effect” and the “Sickle cells after metabisulfite versus controls” value (RBCs containing HbS; all twelve patients, 1 and 2 mg APM, ANOVA p<0.00004) was “fewer sickle cells than the controls”. The “Duration of antisickling effect in vitro” value (RBCs containing HbS; counts at 0-27 hours post-metabisulfite induction) was “at least 27 hours”, the “Passage of APM across the RBC membrane” value (RBCs containing HbS; in the absence of Ca2+ (EDTA)) was “does not pass the RBC membrane” and the “Rate of sickling in APM treated cells” value (RBCs containing HbS; over 27 hours, versus controls) was “significantly less than that in the controls”. The “Number of sickling RBCs relative to the control” value (sickling RBCs [1]; 60 milligrams APM orally, patient with sickle cell anemia) was “decrease in the number of sickling RBCs”, the “Antisickling effect versus 60 milligram dosage” value (sickling RBCs [1]; 160 milligrams APM orally, same patient) was “proportionately larger” and the “Dose-response of antisickling effect” value (sickling RBCs [2]; HgBss and sbthal patients) was “significant dose-response effect”. The “Dose-response of antisickling effect” value (sickling RBCs [2]; Hgbsc patients) was “No dose-response effect”, the “Effect on HbSC blood” value (sickling RBCs [2]; in vivo or in vitro, sickle cell number and viscosity) was “not affected” and the “Number of sickling RBCs relative to the control” value (sickling RBCs [2]; lower dosage 1.5 mg/kg body weight) was “decrease in the number of sickling RBCs”. The “Time to reduction in number of sickle cells relative to normal cells after administration” value (sickling RBCs [2]; patients with sickle cell family diseases, effective amount) was “within one hour”, the “Blood viscosity change after treatment” value (whole blood viscosity [3]; HgBss patients, 1.5, 3 or 6 mg/kg) was “blood viscosity decreased” and the “No. of Patients with decreasing viscosity” value (whole blood viscosity [3]; HgBss, of five patients) was 5. For the same compound, the “Blood viscosity change after treatment” value (whole blood viscosity [3]; Hgbsc patients) was “increased viscosity”, the “No. of Patients with increasing viscosity” value (whole blood viscosity [3]; Hgbsc, of three patients) was 3 and the “Blood viscosity change after treatment” value (whole blood viscosity [3]; sbthal patients) was “blood viscosity also decreased”. The “No. of Patients with decreasing viscosity” value (whole blood viscosity [3]; sbthal, of two patients) was 2, the “Viscosity of blood samples compared to the control” value (whole blood viscosity [4]; HgBss patients) was “decreased over time” and the “Viscosity of blood samples compared to the control” value (whole blood viscosity [4]; Hgbsc patients) was “increase in viscosity”. For the same compound, the “Pain and inflammation of arthritis” value [5] was “alleviate the pain and inflammation”.
